Where “and” joins values, the source holds several entries; their conditions need not be identical. Equal values may be shown once.
What was measured:
[1] = Liver microsomes stability, human
Procedure: (§1) The objective of this study was to estimate in vitro metabolic stability of representative compounds of the application in pooled human and male mouse liver microsomes. The concentrations of parent compounds in reaction systems were evaluated by LC-MS/MS for estimating the stability in pooled human and male mouse liver microsomes. The in vitro intrinsic clearances of test compounds were determined as well.
(§2) A master solution in the “Incubation Plate” containing phosphate buffer, ultra-pure H2O, MgCl2 solution and liver microsomes was made according to Table 3. The mixture was pre-warmed at 37° C. water bath for 5 minutes.
(§3) 40 μL of 10 mM NADPH solution was added to each well. The final concentration of NADPH was 1 mM. The negative control samples were prepared by replacing NADPH with 40 μL of ultra-pure H2O. Samples were prepared in duplicate. Negative controls were prepared in singlet.
(§4) The reaction was started with the addition of 4 μL of 200 μM test compounds or control compounds to each master solution to get the final concentration of 2 μM. This study was performed in duplicate.
(§5) Aliquots of 50 μL were taken from the reaction solution at 0, 15, 30, 45 and 60 minutes. The reaction solutions were stopped by the addition of 4 volumes of cold methanol with IS (100 nM alprazolam, 200 nM imipramine, 200 nM labetalol and 2 μM ketoprofen). Samples were centrifuged at 3,220 g for 40 minutes. Aliquot of 90 μL of the supernatant was mixed with 90 μL of ultra-pure H2O and then was used for LC-MS/MS analysis.
(§6) LC/MS analysis was performed for all samples from this study using a Shimadzu liquid chromatograph separation system equipped with degasser DGU-20A5R; solvent delivery unit LC-30AD; system controller SIL-30AC; column oven CTO-30A; CTC Analytics HTC PAL System. Mass spectrometric analysis was performed using a Triple Quad™ 5500 instrument.
(§7) All calculations were carried out using Microsoft Excel. Peak areas were determined from extracted ion chromatograms. The slope value, k, was determined by linear regression of the natural logarithm of the remaining percentage of the parent drug vs. incubation time curve.
(§8) The in vitro half-life (in vitro t1/2) was determined from the slope value:
(§9) Conversion of the in vitro t1/2 (min) into the in vitro intrinsic clearance (in vitro CLint, in μL/min/mg proteins) was done using the following equation (mean of duplicate determinations): […]

[2] = target: T1, human 5-HT2A (h5-HT2A) receptor (Homo sapiens, UniProt P28223); assay: FLIPR assay, human 5-HT2A receptor under agonist mode; assay type: cell-based; conditions: 5-HT2A (FLIPR)
T1 construct: expressed in transfected cells; cultured under G418 and hygromycin B selection
T1 sequence (P28223 whole entry): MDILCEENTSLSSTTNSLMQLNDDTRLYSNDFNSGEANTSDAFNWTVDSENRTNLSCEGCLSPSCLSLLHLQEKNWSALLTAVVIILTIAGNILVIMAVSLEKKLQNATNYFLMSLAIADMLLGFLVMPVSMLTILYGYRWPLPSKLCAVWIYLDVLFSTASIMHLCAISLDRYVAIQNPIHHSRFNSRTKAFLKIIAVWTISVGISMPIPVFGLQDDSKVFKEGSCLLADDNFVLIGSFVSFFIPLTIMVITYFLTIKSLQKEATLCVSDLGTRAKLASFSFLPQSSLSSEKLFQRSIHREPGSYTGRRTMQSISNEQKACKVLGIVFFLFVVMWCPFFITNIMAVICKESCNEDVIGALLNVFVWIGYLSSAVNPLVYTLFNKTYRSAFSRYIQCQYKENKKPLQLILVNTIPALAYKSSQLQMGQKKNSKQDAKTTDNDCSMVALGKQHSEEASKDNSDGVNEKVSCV
Procedure: I. Assessment of the Effect of Exemplary Compounds of Formula I Targeting on Human 5-HT2A (h5-HT2A) Receptor Under Agonist Mode
• 1. Cells were cultured in cell culture medium (DMEM containing 10% FBS, 1×penicillin-streptomycin 300 μg/ml G418 and 100 μg/ml hygromycin B) at 37° C., 5% (v/v) CO2. • 2. One day before the assays, the cells were detached using TrypLE™ Express and cells were counted using cell counter. Only cells with >85% viability were used for the assay. • 3. 20000 cells/well were seeded in 30 μl/well culture medium to a 384-well cell plate and cells were incubated overnight at 37° C., 5% (v/v) CO2. • 4. On the assay day, 2×dye solution was prepared following the manual of the FLIPR® Calcium 6 Assay Kit: i. The dye was diluted with assay buffer (20 mM HEPES in 1× HBSS, PH7.4); ii. Probenecid was added to the final concentration of 5 mM; iii. Vortex vigorously for 1-2 minutes. • 5. Medium was removed from cell plate by flicking the cell plate on towel papers. • 6. 10 μl of assay buffer and 10 μl of 2×dye solution was added to each well of the cell plate. • 7. The cell plate was placed on plate shaker, the plate was agitated at 600 rpm for 2 minutes. The plate was incubated at 37° C. for 2 hours followed by additional 15-minute incubation at 25° C. • 8. 3×compound in assay buffer was prepared: a. Reference compounds were diluted to required concentration with DMSO. The compounds were added to a 384-well compound plate; b. Serial dilutions were performed; c. 10 mM test compounds were added to the compound plate, and 3-fold serial dilutions were performed. d. Transfer 60 nl/well of compounds from source plate to a 384-well compound plate (Corning, 3657) by using an Echo; e. Add 20 μl/well assay buffer to the compound plate; f. Mix the plate on plate shaker for 2 mins; • 9. The cell plate, compound plate and tips were put into FLIPR, 10 μl of 3× compound was transferred to the cell plate per well with FLIPR.
• i. The normalized fluorescence reading (RFU) was calculated as shown below, where Fmax and Fmin stand for maximum and minimum of calcium signal during defined time window: RFU=Fmax−Fmin. • ii. Calculate the percentage activation using following equation:
[formula] • Iii. Calculate EC50 by fitting % activation against log of compound concentrations with Hill equation using XLfit.
Exemplary compounds of Formula I were evaluated functionally using FLIPR assay for their effect on h5-HT2A receptor under agonist mode.

Male, C57BL/6J mice = assay: Mouse head twitch; assay type: in vivo; conditions: for head twitches (mean): counted over 1 hr, male C57BL/6J mice
Procedure: The effect of different doses of representative compounds of Formula I were evaluated on head-twitch response (HTR) and other behavioural responses as behavior-based models of psychedelic activity.
Male, C57BL/6J mice (body weight range 20-30 g) were dosed with the appropriate dose of test article, and following a 1-minute pre-treatment time, placed in individual observation chambers. Animals were visually assessed for the incidence head twitches continuously over a 1 hr period. Head twitches were defined as a rapid jerk of the head which was not elicited by an external tactile stimulus (Come and Pickering, Psychopharmacologia, 1967, 11(1): 65-78). Each head twitch was individually counted by a trained observer, and the data was expressed as the mean±SEM of 6-10 mice per group. Mice were used in a single experiment only.
The head twitch response of exemplary compound II-1 (1-30 mg/kg SC) was compared to 5-MeO DMT and psilocybin (FIG. 1, Table 6).

[3] = Liver microsomes stability, mouse
Procedure: as §1, §2, §3, §4, §5, §6, §7, §8, §9

[4] = Liver microsomes stability, rat; conditions: rat

COc1ccc2c(c1)C(CCN(C)C)CN2 (centres unmarked) [II-1, 2-(5-Methoxyindolin-3-yl)-N,N-dimethylethan-1-amine]
Predicted hepatic CL ([1]; human liver microsomes): 14.13 mL/min/kg
Remaining Percentage ([1]; human, With NADPH, 0 min): 100.00%
Remaining Percentage ([1]; human, With NADPH, 30 min): 65.37%
Remaining Percentage ([1]; human, With NADPH, 60 min): 34.47%
Remaining Percentage ([1]; human, Without NADPH, 0 min): 100.00%
Remaining Percentage ([1]; human, Without NADPH, 30 min): 89.91%
Remaining Percentage ([1]; human, Without NADPH, 60 min): 83.49%
CLint scaled at 2 μM ([1]; human, pooled liver microsomes): 44.5 mL/min/kg
half-life at 2 μM ([1]; human, pooled liver microsomes): 39 min
microsomal CLint at 2 μM ([1]; human, pooled liver microsomes): 35.5 µL/min/mg
RFU@10 μM ([2]; 10 μM, RFU=Fmax−Fmin): 1813 and 1180
EC50 ([2]; read-out: EC50): 202 nM and 274 nM
head twitches (mean) (Male, C57BL/6J mice; 0.3 mg/kg SC): 3.2
head twitches (mean) (Male, C57BL/6J mice; 1 mg/kg SC): 3.8
head twitches (mean) (Male, C57BL/6J mice; 3 mg/kg SC): 3.6
head twitches (mean) (Male, C57BL/6J mice; 10 mg/kg SC): 2.3
mice with some 5-HT syndrome associated behaviours (Male, C57BL/6J mice; 30 mg/kg SC, 2/5 mice): 40%
head twitches (mean) (Male, C57BL/6J mice; 30 mg/kg SC): 4.2
head twitch response (in words) (Male, C57BL/6J mice; SC, dose range as in the sentence): only a modest head twitch response
other behavioural signs (locomotion, core body temperature, 5-HT syndrome) in words (Male, C57BL/6J mice; SC, psilocybin 3 and 10 mg/kg, 5-MeO DMT 3-30 mg/kg, II-1 0.3-30 mg/kg): No overt signs of hypolocomotion or 5-HT syndrome
peak head twitch response (Male, C57BL/6J mice; at 30 mg/kg SC, mean±SEM): 4.2±0.7 twitches
CLint scaled at 2 μM ([3]; male, mouse, microsomes): 368 mL/min/kg
half-life at 2 μM ([3]; male, mouse, microsomes): 16.5 min
microsomal CLint at 2 μM ([3]; male, mouse, microsomes): 84.2 µL/min/mg
Predicted hepatic CL ([3]; mouse liver microsomes): 72.33 mL/min/kg
Remaining Percentage ([3]; mouse, With NADPH, 0 min): 100.00%
Remaining Percentage ([3]; mouse, With NADPH, 30 min): 31.98%
Remaining Percentage ([3]; mouse, With NADPH, 60 min): 8.00%
Remaining Percentage ([3]; mouse, Without NADPH, 0 min): 100.00%
Remaining Percentage ([3]; mouse, Without NADPH, 30 min): 117.83%
Remaining Percentage ([3]; mouse, Without NADPH, 60 min): 113.85%
Remaining Percentage ([4]; With NADPH, 0 min): 100.00%
Remaining Percentage ([4]; With NADPH, 30 min): 20.42%
Remaining Percentage ([4]; With NADPH, 60 min): 5.99%
Remaining Percentage ([4]; Without NADPH, 0 min): 100.00%
Remaining Percentage ([4]; Without NADPH, 30 min): 86.92%
Remaining Percentage ([4]; Without NADPH, 60 min): 87.15%
CLint scaled at 2 μM ([4]; liver microsomes): 168 mL/min/kg
Predicted hepatic CL ([4]; liver microsomes): 41.56 mL/min/kg
half-life at 2 μM ([4]; liver microsomes): 14.8 min
microsomal CLint at 2 μM ([4]; liver microsomes): 93.8 µL/min/mg

— patent US20250353827A1, “INDOLINE DERIVATIVES AS SEROTONERGIC AGENTS USEFUL FOR THE TREATMENT OF DISORDERS RELATED THERETO” (MINDSET PHARMA INC., priority 2022, published 2025)
